Results on 19 compounds are retold here after US20210122730A1, “GLUCOCORTICOID RECEPTOR MODULATORS” (ORIC Pharmaceuticals, Inc., priority 2017, published 2021).

The structures appear in SMILES notation. Where only a bound is given, the exact number is not on record here.

In this assay the target is T1, GR (Homo sapiens, UniProt P04150).
T1 construct: expressed in transfected cells; host or cells: CHO-K1
T1 sequence (P04150 1-777): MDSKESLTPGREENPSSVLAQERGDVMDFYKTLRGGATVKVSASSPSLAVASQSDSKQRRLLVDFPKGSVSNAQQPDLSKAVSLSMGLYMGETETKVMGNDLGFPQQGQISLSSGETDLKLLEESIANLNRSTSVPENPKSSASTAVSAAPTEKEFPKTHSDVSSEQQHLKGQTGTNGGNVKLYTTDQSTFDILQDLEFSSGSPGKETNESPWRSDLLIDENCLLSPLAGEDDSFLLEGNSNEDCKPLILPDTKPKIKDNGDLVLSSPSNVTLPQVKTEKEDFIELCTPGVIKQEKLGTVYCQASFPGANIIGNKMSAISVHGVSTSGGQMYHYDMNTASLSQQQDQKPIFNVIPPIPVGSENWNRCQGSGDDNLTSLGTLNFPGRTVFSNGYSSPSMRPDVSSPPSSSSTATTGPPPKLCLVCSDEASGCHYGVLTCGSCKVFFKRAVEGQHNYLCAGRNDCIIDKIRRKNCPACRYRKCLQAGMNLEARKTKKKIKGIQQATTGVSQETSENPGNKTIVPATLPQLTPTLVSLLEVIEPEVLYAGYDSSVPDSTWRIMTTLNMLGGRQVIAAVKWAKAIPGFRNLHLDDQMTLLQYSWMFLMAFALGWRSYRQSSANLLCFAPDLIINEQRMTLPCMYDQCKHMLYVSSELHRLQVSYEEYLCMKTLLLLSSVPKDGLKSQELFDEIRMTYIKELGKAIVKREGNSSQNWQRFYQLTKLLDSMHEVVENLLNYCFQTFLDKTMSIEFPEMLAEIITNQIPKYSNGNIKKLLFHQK
Briefly: In Vitro GR Luciferase Reporter Assay (antagonist mode, CHO-K1-GR-MMTV-Luc reporter cells). It is filed as cell-based. The settings on record: antagonist mode, 10 nM Dexamethasone. In a few lines:
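Antagonist mode: compounds (8 serial 1:5 dilutions) added to GR-MMTV-luciferase CHO-K1 reporter cells co-exposed to 10 nM dexamethasone final, in phenol red-free DMEM plus 10% CSS. After roughly 18-24 h at 37° C, OneGlo luminescence read and IC50 calculated.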
(In general: In a reporter assay the amount or activity of a reporter protein is the signal.)

In general, IC50 refers to the concentration at which inhibition is half-maximal. A higher IC50 goes with weaker potency. `Cn1ccc(S(=O)(=O)N(C2CCCC2)[C@H]2CCC3=Cc4c(cnn4-c4ccc(F)cc4)C[C@]3(C(=O)c3cc(C(F)(F)F)ccn3)C2)n1` [Example 238, N-cyclopentyl-N-((4aS,6S)-1-(4-fluorophenyl)-4a-(4-(trifluoromethyl)picolinoyl)-4,4a,5,6,7,8-hexahydro-1H-benzo[f]indazol-6-yl)-1-methyl-1H-pyrazole-3-sulfonamide]: the IC50 was ≤ 100 nM.

On to `Cn1ncc(S(=O)(=O)N(C2COC2)[C@H]2CCC3=Cc4c(cnn4-c4ccc(F)cc4)C[C@]3(C(=O)c3cc(C(F)(F)F)ccn3)C2)n1` [Example 239, N-((4aS,6S)-1-(4-fluorophenyl)-4a-(4-(trifluoromethyl)picolinoyl)-4,4a,5,6,7,8-hexahydro-1H-benzo[f]indazol-6-yl)-2-methyl-N-(oxetan-3-yl)-2H-1,2,3-triazole-4-sulfonamide], for which the half-maximal inhibitory concentration (IC50) is ≤ 100 nM.

Take `O=C(c1ccc(Cl)cn1)[C@]12Cc3cnn(-c4ccc(F)cc4)c3C=C1CC[C@H](N(C1CC1)S(=O)(=O)c1ccc(F)cc1)C2` [Example 240, N-((4aS,6S)-4a-(5-chloropicolinoyl)-1-(4-fluorophenyl)-4,4a,5,6,7,8-hexahydro-1H-benzo[f]indazol-6-yl)-N-cyclopropyl-4-fluorobenzenesulfonamide]: the half-inhibitory concentration (IC50) was ≤ 100 nM.

Turning to `CC(C)CN([C@H]1CCC2=Cc3c(cnn3-c3ccc(F)cc3)C[C@]2(C(=O)c2cc(Cl)ccn2)C1)S(=O)(=O)c1ccn(C)n1` [Example 249, N-((4aS,6S)-4a-(4-chloropicolinoyl)-1-(4-fluorophenyl)-4,4a,5,6,7,8-hexahydro-1H-benzo[f]indazol-6-yl)-N-isobutyl-1-methyl-1H-pyrazole-3-sulfonamide], the half-maximal inhibitory concentration (IC50) was ≤ 100 nM.

Consider `CC(C)CN([C@H]1CCC2=Cc3c(cnn3-c3ccc(F)cc3)C[C@]2(C(=O)c2cc(F)ccn2)C1)S(=O)(=O)c1ccn(C)n1` [Example 252, N-((4aS,6S)-1-(4-fluorophenyl)-4a-(4-fluoropicolinoyl)-4,4a,5,6,7,8-hexahydro-1H-benzo[f]indazol-6-yl)-N-isobutyl-1-methyl-1H-pyrazole-3-sulfonamide], for which the IC50 was ≤ 100 nM.

Turning to `O=C(c1cc(C(F)(F)F)ccn1)[C@]12Cc3cnn(-c4ccc(F)cc4)c3C=C1CC[C@H](N(C1CCC1)S(=O)(=O)c1ccn(C(F)F)n1)C2` [Example 253, N-cyclobutyl-1-(difluoromethyl)-N-((4aS,6S)-1-(4-fluorophenyl)-4a-(4-(trifluoromethyl)picolinoyl)-4,4a,5,6,7,8-hexahydro-1H-benzo[f]indazol-6-yl)-1H-pyrazole-3-sulfonamide], the IC50 is ≤ 100 nM.

On to `Cn1ncc(S(=O)(=O)N(C2CCC2)[C@H]2CCC3=Cc4c(cnn4-c4ccc(F)cc4)C[C@]3(C(=O)c3cc(C(F)(F)F)ccn3)C2)n1` [Example 256, N-cyclobutyl-N-((4aS,6S)-1-(4-fluorophenyl)-4a-(4-(trifluoromethyl)picolinoyl)-4,4a,5,6,7,8-hexahydro-1H-benzo[f]indazol-6-yl)-2-methyl-2H-1,2,3-triazole-4-sulfonamide], for which the half-inhibitory concentration (IC50) was ≤ 100 nM.

Take `Cn1ccc(S(=O)(=O)[C@H]2CCC3=Cc4c(cnn4-c4ccc(F)cc4)C[C@]3(C(=O)c3ncc(C(F)(F)F)s3)C2)n1` [Example 264, ((4aS,6S)-1-(4-fluorophenyl)-6-((1-methyl-1H-pyrazol-3-yl)sulfonyl)-1,4,5,6,7,8-hexahydro-4aH-benzo[f]indazol-4a-yl)(5-(trifluoromethyl)thiazol-2-yl)methanone]: the IC50 was ≤ 100 nM.

In the case of `O=C(c1ncc(C(F)(F)F)s1)[C@]12Cc3cnn(-c4ccc(F)cc4)c3C=C1CC[C@H](N(C1CC1)S(=O)(=O)c1ccc(Cl)nc1)C2` [Example 271, 6-chloro-N-cyclopropyl-N-((4aS,6S)-1-(4-fluorophenyl)-4a-(5-(trifluoromethyl)thiazole-2-carbonyl)-4,4a,5,6,7,8-hexahydro-1H-benzo[f]indazol-6-yl)pyridine-3-sulfonamide], the IC50 was ≤ 100 nM.

With `O=C(c1cc(F)ccn1)[C@]12Cc3cnn(-c4ccc(F)cc4)c3C=C1CC[C@H](N(CC1CC1)S(=O)(=O)c1ccc(F)cc1)C2` [Example 274, N-(cyclopropylmethyl)-4-fluoro-N-((4aS,6S)-1-(4-fluorophenyl)-4a-(4-fluoropicolinoyl)-4,4a,5,6,7,8-hexahydro-1H-benzo[f]indazol-6-yl)benzenesulfonamide], the half-inhibitory concentration (IC50) was ≤ 100 nM.

Take `O=C(c1cc(Cl)ccn1)[C@]12Cc3cnn(-c4ccc(F)cc4)c3C=C1CC[C@H](N(CC1CC1)S(=O)(=O)c1ccc(F)cc1)C2` [Example 275, N-((4aS,6S)-4a-(4-chloropicolinoyl)-1-(4-fluorophenyl)-4,4a,5,6,7,8-hexahydro-1H-benzo[f]indazol-6-yl)-N-(cyclopropylmethyl)-4-fluorobenzenesulfonamide]: the 50% inhibitory concentration (IC50) was ≤ 100 nM.

On to `O=C(c1cc(Cl)ccn1)[C@]12Cc3cnn(-c4ccc(F)cc4)c3C=C1CC[C@H](N(CC1(O)CC1)S(=O)(=O)c1ccc(F)cc1)C2` [Example 276, N-((4aS,6S)-4a-(4-chloropicolinoyl)-1-(4-fluorophenyl)-4,4a,5,6,7,8-hexahydro-1H-benzo[f]indazol-6-yl)-4-fluoro-N-((1-hydroxycyclopropyl)methyl) benzenesulfonamide], for which the IC50 is ≤ 100 nM.

In the case of `CC(C)N([C@H]1CCC2=Cc3c(cnn3-c3ccc(F)cc3)C[C@]2(C(=O)c2cc(F)ccn2)C1)S(=O)(=O)c1cnn(C)n1` [Example 278, N-((4aS,6S)-1-(4-fluorophenyl)-4a-(4-fluoropicolinoyl)-4,4a,5,6,7,8-hexahydro-1H-benzo[f]indazol-6-yl)-N-isopropyl-2-methyl-2H-1,2,3-triazole-4-sulfonamide], the concentration for half-maximal inhibition (IC50) was ≤ 100 nM.

As for `CC(C)N(C(=O)C1CCCC1)[C@H]1CCC2=Cc3c(cnn3-c3ccc(F)cc3)C[C@]2(C(=O)c2ncc(C(F)(F)F)s2)C1` [Example 281, N-((4aS,6S)-1-(4-fluorophenyl)-4a-(5-(trifluoromethyl)thiazole-2-carbonyl)-4,4a,5,6,7,8-hexahydro-1H-benzo[f]indazol-6-yl)-N-isopropylcyclopentanecarbox-amide], the IC50 is ≤ 100 nM.

Turning to `Cn1ccc(S(=O)(=O)N([C@H]2CCC3=Cc4c(cnn4-c4ccc(F)cc4)C[C@]3(C(=O)c3cc(F)ccn3)C2)[C@H]2C[C@@](C)(O)C2)n1` [Example 284, N-((4aS,6S)-1-(4-fluorophenyl)-4a-(4-fluoropicolinoyl)-4,4a,5,6,7,8-hexahydro-1H-benzo[f]indazol-6-yl)-N-((1s,3R)-3-hydroxy-3-methylcyclobutyl)-1-methyl-1H-pyrazole-3-sulfonamide], the IC50 is ≤ 100 nM.

With `O=C(c1cc(C(F)(F)F)ccn1)[C@]12Cc3cnn(-c4ccc(F)cc4)c3C=C1CC[C@H](N(C1CC1)S(=O)(=O)c1ccc(C(F)(F)F)nc1)C2` [Example 285, N-cyclopropyl-N-((4aS,6S)-1-(4-fluorophenyl)-4a-(4-(trifluoromethyl)picolinoyl)-4,4a,5,6,7,8-hexahydro-1H-benzo[f]indazol-6-yl)-6-(trifluoromethyl)pyridine-3-sulfonamide], the IC50 is ≤ 100 nM.

`O=C(c1ccc(F)cc1)N(C1CC1)[C@H]1CCC2=Cc3c(cnn3-c3ccc(F)cc3)C[C@]2(C(=O)c2ncc(C(F)(F)F)s2)C1` [Example 291, N-cyclopropyl-4-fluoro-N-((4aS,6S)-1-(4-fluorophenyl)-4a-(5-(trifluoromethyl)thiazole-2-carbonyl)-4,4a,5,6,7,8-hexahydro-1H-benzo[f]indazol-6-yl)benzamide] yielded an IC50 of 100 to 1000 nM.

Consider `Cn1ncc(S(=O)(=O)N(CC2(O)CC2)[C@H]2CCC3=Cc4c(cnn4-c4ccc(F)cc4)C[C@]3(C(=O)c3ncc(C(F)(F)F)s3)C2)n1` [Example 292, N-((4aS,6S)-1-(4-fluorophenyl)-4a-(5-(trifluoromethyl)thiazole-2-carbonyl)-4,4a,5,6,7,8-hexahydro-1H-benzo[f]indazol-6-yl)-N-((1-hydroxycyclopropyl)methyl)-2-methyl-2H-1,2,3-triazole-4-sulfonamide], for which the 50% inhibitory concentration (IC50) was ≤ 100 nM.

For `Cn1cc(S(=O)(=O)N(CC2CC2)[C@H]2CCC3=Cc4c(cnn4-c4ccc(F)cc4)C[C@]3(C(=O)c3cc(F)ccn3)C2)nn1` [Example 297, N-(cyclopropylmethyl)-N-((4aS,6S)-1-(4-fluorophenyl)-4a-(4-fluoropicolinoyl)-4,4a,5,6,7,8-hexahydro-1H-benzo[f]indazol-6-yl)-1-methyl-1H-1,2,3-triazole-4-sulfonamide], the half-inhibitory concentration (IC50) was ≤ 100 nM.
